pKd: −log10 of the molar value. Residues, ends and D or L forms follow the SMILES beside them. No end group written: not given here. *: point of attachment. Succinimide(1-Et,3-yl) = CCN1C(=O)CC(*)C1=O
Biological target: T1, human CRHR2 (Homo sapiens, UniProt Q13324)
T1 construct: expressed in transfected cells
T1 sequence (Q13324 1-411): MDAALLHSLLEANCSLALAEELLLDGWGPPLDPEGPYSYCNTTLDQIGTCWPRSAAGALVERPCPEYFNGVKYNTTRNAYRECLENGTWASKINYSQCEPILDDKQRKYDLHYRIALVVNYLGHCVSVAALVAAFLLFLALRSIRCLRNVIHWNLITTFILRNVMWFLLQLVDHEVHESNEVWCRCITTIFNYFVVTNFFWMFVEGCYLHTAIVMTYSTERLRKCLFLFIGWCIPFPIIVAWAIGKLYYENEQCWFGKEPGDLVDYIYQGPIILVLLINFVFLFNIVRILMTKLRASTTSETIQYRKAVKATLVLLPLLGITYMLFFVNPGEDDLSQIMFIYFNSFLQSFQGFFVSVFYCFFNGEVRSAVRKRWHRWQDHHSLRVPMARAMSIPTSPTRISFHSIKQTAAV
Assay: cAMP assay in h-CRHR2 transfected SK-N-MC cells
Format: cell-based
Conditions: for Log DR: Table 13, h-SCP control pA50 minus test compound pA50 within same assay batch; for nH: Table 12, Hill slope
How it was run: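 Intracellular cAMP was read by competition with [125I]-cAMP for an anti-cAMP antibody after HCl lysis of human CRHR2-transfected SK-N-MC cells. Cells had been exposed to peptide, 1 pM to 10 μM, for 60 min at 37 °C in IBMX (10 μM) buffer. A50 and pA50 came from Hill fits; Log DR was computed against h-SCP within each batch.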

Row | Molecule | Log DR | also measured
1 | LSLDVPTNIMNLLFNIAKAKNLRAQAAANAHLMAQI-NH2 [SEQ ID NO: 109, LSLDVPINIMNLLFNIAKAKNLRAQAAANAHLMAQI-NH2] | – | nH: 0.74
2 | TKFTLSLDVPTNIMNLLFNIAKAKNLRACAAANAHLMAQI-NH2 [SEQ ID NO: 30, TKFTLSLDVPTNIMNLLFNIAKAKNLRACAAANAHLMAQI-NH2] | 1.28 | –
3 | SLDVPTNIMNLLFNIAKAKNLRAQAAANAHLMAQI-NH2 [SEQ ID NO: 110, SLDVPTNIMNLLFNIAKAKNLRAQAAANAHLMAQI-NH2] | – | pKd (tested as antagonists of h-SCP at 10 μM, read-out: receptor affinity (KA)): > 5.00
4 | TLSLDVPTNIMNLLFNIAKAKNLRAQAAANAHLMAQI-NH2 [SEQ ID NO: 108, TLSLDVPTNIMNLLFNIAKAKNLRAQAAANAHLMAQI-NH2] | – | nH: 0.82
5 | TKFTLSLDVPTCIMNLLFNIAKAKNLRAQAAANAHLMAQI-NH2 [SEQ ID NO: 13, TKFTLSLDVPTCIMNLLFNIAKAKNLRAQAAANAHLMAQI-NH2] | −0.01 | –
6 | KFTLSLDVPTNIMNLLFNIAKAKNLRAQAAANAHLMAQI-NH2 [SEQ ID NO: 107, KFTLSLDVPTNIMNLLFNIAKAKNLRAQAAANAHLMAQI-NH2] | – | nH: 1.07
7 | TKFTLSLDVPTNIMNLLFNIAKACNLRAQAAANAHLMAQI-NH2 [SEQ ID NO: 25, TKFTLSLDVPTNIMNLLFNIAKACNLRAQAAANAHLMAQI-NH2] | 0.35 | –
8 | TKFTLCLDVPTNIMNLLFNIAKAKNLRAQAAANAHLMAQI-NH2 [SEQ ID NO: 7, TKFTLCLDVPTNIMNLLFNIAKAKNLRAQAAANAHLMAQI-NH2] | 2.08 | –

More lines, main results first:

Row | Log DR | Molecule | also measured
9 | 0.03 | CC[C@H](C)[C@H](NC(=O)[C@H](CCC(N)=O)NC(=O)[C@H](C)NC(=O)[C@H](CCSC)NC(=O)[C@H](CC(C)C)NC(=O)[C@H](Cc1c[nH]cn1)NC(=O)[C@H](C)NC(=O)[C@H](CC(N)=O)NC(=O)[C@H](C)NC(=O)[C@H](C)NC(=O)[C@H](C)NC(=O)[C@H](CCC(N)=O)NC(=O)[C@H](C)NC(=O)[C@H](CCCNC(=N)N)NC(=O)[C@H](CSC1CC(=O)N(CC)C1=O)NC(=O)[C@H](CC(N)=O)NC(=O)[C@H](CCCCN)NC(=O)[C@H](C)NC(=O)[C@H](CCCCN)NC(=O)[C@H](C)NC(=O)[C@@H](NC(=O)[C@H](CC(N)=O)NC(=O)[C@H](Cc1ccccc1)NC(=O)[C@H](CC(C)C)NC(=O)[C@H](CC(C)C)NC(=O)[C@H](CC(N)=O)NC(=O)[C@H](CCSC)NC(=O)[C@@H](NC(=O)[C@H](CC(N)=O)NC(=O)[C@@H](NC(=O)[C@@H]1CCCN1C(=O)[C@@H](NC(=O)[C@H](CC(=O)O)NC(=O)[C@H](CC(C)C)NC(=O)[C@H](CO)NC(=O)[C@H](CC(C)C)NC(=O)[C@@H](NC(=O)[C@H](Cc1ccccc1)NC(=O)[C@H](CCCCN)NC(=O)[C@@H](N)[C@@H](C)O)[C@@H](C)O)C(C)C)[C@@H](C)O)[C@@H](C)CC)[C@@H](C)CC)C(N)=O (stereo partly drawn) [SEQ ID NO: 48, TKFTLSLDVPTNIMNLLFNIAKAKNC(-NES)RAQA AANAH LMAQI-NH2] (H-TKFTLSLDVPTNIMNLLFNIAKAKNC(Succinimide(1-Et,3-yl))RAQAAANAHLMAQI-NH2; N-terminus assumed) | –
10 | 2.07 | TKFTLSLDVPTNIMNLLFNIAKAKNLRAQAAANAHLMAQC-NH2 [SEQ ID NO: 41, TKFTLSLDVPTNIMNLLFNIAKAKNLRAQAAANAHLMAQC-NH2] | –
11 | −0.01 | CC[C@H](C)[C@H](NC(=O)[C@H](CCC(N)=O)NC(=O)[C@H](C)NC(=O)[C@H](CCSC)NC(=O)[C@H](CC(C)C)NC(=O)[C@H](Cc1c[nH]cn1)NC(=O)[C@H](C)NC(=O)[C@H](CC(N)=O)NC(=O)[C@H](C)NC(=O)[C@H](C)NC(=O)[C@H](C)NC(=O)[C@H](CCC(N)=O)NC(=O)[C@H](C)NC(=O)[C@H](CCCNC(=N)N)NC(=O)[C@H](CC(C)C)NC(=O)[C@H](CC(N)=O)NC(=O)[C@H](CSC1CC(=O)N(CC)C1=O)NC(=O)[C@H](C)NC(=O)[C@H](CCCCN)NC(=O)[C@H](C)NC(=O)[C@@H](NC(=O)[C@H](CC(N)=O)NC(=O)[C@H](Cc1ccccc1)NC(=O)[C@H](CC(C)C)NC(=O)[C@H](CC(C)C)NC(=O)[C@H](CC(N)=O)NC(=O)[C@H](CCSC)NC(=O)[C@@H](NC(=O)[C@H](CC(N)=O)NC(=O)[C@@H](NC(=O)[C@@H]1CCCN1C(=O)[C@@H](NC(=O)[C@H](CC(=O)O)NC(=O)[C@H](CC(C)C)NC(=O)[C@H](CO)NC(=O)[C@H](CC(C)C)NC(=O)[C@@H](NC(=O)[C@H](Cc1ccccc1)NC(=O)[C@H](CCCCN)NC(=O)[C@@H](N)[C@@H](C)O)[C@@H](C)O)C(C)C)[C@@H](C)O)[C@@H](C)CC)[C@@H](C)CC)C(N)=O (stereo partly drawn) [SEQ ID NO: 50, TKFTLSLDVPTNIMNLLFNIAKAC(-NES)N LRAQA AANAH LMAQI-NH2] (H-TKFTLSLDVPTNIMNLLFNIAKAC(Succinimide(1-Et,3-yl))NLRAQAAANAHLMAQI-NH2; N-terminus assumed) | –
12 | 0.72 | CKFTLSLDVPTNIMNLLFNIAKAKNLRAQAAANAHLMAQI-NH2 [SEQ ID NO: 2, CKFTLSLDVPTNIMNLLFNIAKAKNLRAQAAANAHLMAQI-NH2] | –
13 | 0.76 | TKFTLSLDVPTNIMCLLFNIAKAKNLRAQAAANAHLMAQI-NH2 [SEQ ID NO: 16, TKFTLSLDVPTNIMCLLFNIAKAKNLRAQAAANAHLMAQI-NH2] | –
14 | 0.68 | CC[C@H](C)[C@H](NC(=O)[C@H](CCC(N)=O)NC(=O)[C@H](C)NC(=O)[C@H](CCSC)NC(=O)[C@H](CC(C)C)NC(=O)[C@H](Cc1c[nH]cn1)NC(=O)[C@H](C)NC(=O)[C@H](CC(N)=O)NC(=O)[C@H](C)NC(=O)[C@H](C)NC(=O)[C@H](C)NC(=O)[C@H](CCC(N)=O)NC(=O)[C@H](C)NC(=O)[C@H](CCCNC(=N)N)NC(=O)[C@H](CC(C)C)NC(=O)[C@H](CC(N)=O)NC(=O)[C@H](CCCCN)NC(=O)[C@H](C)NC(=O)[C@H](CCCCN)NC(=O)[C@H](C)NC(=O)[C@H](CSC1CC(=O)N(CC)C1=O)NC(=O)[C@H](CC(N)=O)NC(=O)[C@H](Cc1ccccc1)NC(=O)[C@H](CC(C)C)NC(=O)[C@H](CC(C)C)NC(=O)[C@H](CC(N)=O)NC(=O)[C@H](CCSC)NC(=O)[C@@H](NC(=O)[C@H](CC(N)=O)NC(=O)[C@@H](NC(=O)[C@@H]1CCCN1C(=O)[C@@H](NC(=O)[C@H](CC(=O)O)NC(=O)[C@H](CC(C)C)NC(=O)[C@H](CO)NC(=O)[C@H](CC(C)C)NC(=O)[C@@H](NC(=O)[C@H](Cc1ccccc1)NC(=O)[C@H](CCCCN)NC(=O)[C@@H](N)[C@@H](C)O)[C@@H](C)O)C(C)C)[C@@H](C)O)[C@@H](C)CC)C(N)=O (stereo partly drawn) [SEQ ID NO: 51, TKFTL SLDVP TNIMN LLFNC(-NES) AKAKN LRAQA AANAH LMAQI-NH2] (H-TKFTLSLDVPTNIMNLLFNC(Succinimide(1-Et,3-yl))AKAKNLRAQAAANAHLMAQI-NH2; N-terminus assumed) | –
15 | −0.08 | CC[C@H](C)[C@H](NC(=O)[C@H](CCC(N)=O)NC(=O)[C@H](C)NC(=O)[C@H](CCSC)NC(=O)[C@H](CC(C)C)NC(=O)[C@H](Cc1c[nH]cn1)NC(=O)[C@H](C)NC(=O)[C@H](CC(N)=O)NC(=O)[C@H](C)NC(=O)[C@H](C)NC(=O)[C@H](C)NC(=O)[C@H](CCC(N)=O)NC(=O)[C@H](C)NC(=O)[C@H](CCCNC(=N)N)NC(=O)[C@H](CC(C)C)NC(=O)[C@H](CC(N)=O)NC(=O)[C@H](CCCCN)NC(=O)[C@H](C)NC(=O)[C@H](CCCCN)NC(=O)[C@H](C)NC(=O)[C@@H](NC(=O)[C@H](CC(N)=O)NC(=O)[C@H](Cc1ccccc1)NC(=O)[C@H](CC(C)C)NC(=O)[C@H](CSC1CC(=O)N(CC)C1=O)NC(=O)[C@H](CC(N)=O)NC(=O)[C@H](CCSC)NC(=O)[C@@H](NC(=O)[C@H](CC(N)=O)NC(=O)[C@@H](NC(=O)[C@@H]1CCCN1C(=O)[C@@H](NC(=O)[C@H](CC(=O)O)NC(=O)[C@H](CC(C)C)NC(=O)[C@H](CO)NC(=O)[C@H](CC(C)C)NC(=O)[C@@H](NC(=O)[C@H](Cc1ccccc1)NC(=O)[C@H](CCCCN)NC(=O)[C@@H](N)[C@@H](C)O)[C@@H](C)O)C(C)C)[C@@H](C)O)[C@@H](C)CC)[C@@H](C)CC)C(N)=O (stereo partly drawn) [SEQ ID NO: 54, TKFTL SLDVP TNIMN C(-NES)LFNI AKAKN LRAQA AANAH LMAQI-NH2] (H-TKFTLSLDVPTNIMNC(Succinimide(1-Et,3-yl))LFNIAKAKNLRAQAAANAHLMAQI-NH2; N-terminus assumed) | –

From patent US10040838B2, “CRHR2 peptide agonists and uses thereof” (JANSSEN PHARMACEUTICA NV, priority 2008, dated 2018)
